These results are taken from patent US20230382925A1, “MODULATORS OF CYSTIC FIBROSIS TRANSMEMBRANE CONDUCTANCE REGULATOR” (VERTEX PHARMACEUTICALS INCORPORATED, priority 2020, published 2023).

In the assay the target is CFTR (Homo sapiens, UniProt P13569). The experiment in a line: standard Ussing Chamber Assay for CFTR potentiator activity. It counts as cell-based. As for the experimental part:
tert-Butyl N-[(6R,12R)-6-benzyloxy-12-methyl-6,15-bis(trifluoromethyl)-13,19-dioxa-3,4,18-triazatricyclo[12.3.1.12,5]nonadeca-1(18),2,4,14,16-pentaen-17-yl]-N-tert-butoxycarbonyl-carbamate (8.6 g, 11.77 mmol) was dissolved in ethanol (172 mL) then the flask was cycled 3 times between vacuum/nitrogen. Treated the mixture with 10% Pd/C (50% water wet, 1.8 g of 5% w/w, 0.8457 mmol) then cycled 3 times between vacuum/nitrogen and 3 times between vacuum/hydrogen and then stirred vigorously under hydrogen (balloon) at room temperature for 18 h. The mixture was cycled 3 times between vacuum/nitrogen, filtered over Celite washing with ethanol and then the filtrate was evaporated to give 7.3 g of tert-butyl N-tert-butoxycarbonyl-N-[(6R,12R)-6-hydroxy-12-methyl-6,15-bis(trifluoromethyl)-13,19-dioxa-3,4,18-triazatricyclo[12.3.1.12,5]nonadeca-1(18),2,4,14,16-pentaen-17-yl]carbamate an off-white solid. 1H NMR and MS confirmed the expected product. CFTR modulatory activity was confirmed using a standard Ussing Chamber Assay for CFTR potentiator activity.

Sequence of CFTR (P13569 whole entry, species assumed): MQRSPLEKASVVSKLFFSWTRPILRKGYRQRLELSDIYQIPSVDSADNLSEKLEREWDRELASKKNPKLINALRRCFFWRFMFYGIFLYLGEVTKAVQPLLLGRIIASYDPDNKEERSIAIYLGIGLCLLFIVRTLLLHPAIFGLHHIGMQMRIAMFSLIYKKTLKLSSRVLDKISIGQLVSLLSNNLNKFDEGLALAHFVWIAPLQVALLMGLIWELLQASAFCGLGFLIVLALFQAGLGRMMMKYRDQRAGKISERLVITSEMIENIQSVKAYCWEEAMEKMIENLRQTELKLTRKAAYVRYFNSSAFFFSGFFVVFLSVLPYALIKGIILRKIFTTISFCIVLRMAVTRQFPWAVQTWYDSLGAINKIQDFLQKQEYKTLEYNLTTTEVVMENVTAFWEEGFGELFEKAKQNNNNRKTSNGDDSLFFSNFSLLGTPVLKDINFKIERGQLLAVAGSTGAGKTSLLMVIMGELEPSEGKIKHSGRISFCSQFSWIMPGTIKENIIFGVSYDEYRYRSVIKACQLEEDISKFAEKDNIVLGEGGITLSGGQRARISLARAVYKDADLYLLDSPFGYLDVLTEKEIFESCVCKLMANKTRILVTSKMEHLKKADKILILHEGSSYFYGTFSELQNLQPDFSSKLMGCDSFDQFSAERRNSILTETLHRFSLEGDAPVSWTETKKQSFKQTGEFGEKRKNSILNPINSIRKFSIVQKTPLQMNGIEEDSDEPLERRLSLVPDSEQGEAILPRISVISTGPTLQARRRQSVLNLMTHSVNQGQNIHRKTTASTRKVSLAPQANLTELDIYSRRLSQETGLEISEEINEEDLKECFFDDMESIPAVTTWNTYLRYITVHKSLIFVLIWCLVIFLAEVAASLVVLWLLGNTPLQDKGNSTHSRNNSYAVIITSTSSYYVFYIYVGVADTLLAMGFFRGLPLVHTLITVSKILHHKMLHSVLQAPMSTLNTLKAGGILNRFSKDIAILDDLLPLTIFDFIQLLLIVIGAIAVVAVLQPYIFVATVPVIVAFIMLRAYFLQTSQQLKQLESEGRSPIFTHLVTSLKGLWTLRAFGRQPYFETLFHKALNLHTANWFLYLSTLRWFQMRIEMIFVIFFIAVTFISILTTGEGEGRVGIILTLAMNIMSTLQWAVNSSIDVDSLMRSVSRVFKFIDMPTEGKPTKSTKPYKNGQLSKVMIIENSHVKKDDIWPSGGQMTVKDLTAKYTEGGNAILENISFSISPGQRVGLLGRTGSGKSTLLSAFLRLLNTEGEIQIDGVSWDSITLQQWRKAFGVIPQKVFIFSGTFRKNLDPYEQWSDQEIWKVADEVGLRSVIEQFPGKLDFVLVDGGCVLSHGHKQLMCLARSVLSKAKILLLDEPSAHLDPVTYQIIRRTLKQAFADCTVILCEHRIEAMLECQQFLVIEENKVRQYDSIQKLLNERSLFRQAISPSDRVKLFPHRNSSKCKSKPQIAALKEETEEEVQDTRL

Turning to `C[C@@H]1CCCCC[C@](O)(C(F)(F)F)C2=NN=C(O2)c2nc(c(C(F)(F)F)cc2N)O1` [(6R,12R)-17-amino-12-methyl-6,15-bis(trifluoromethyl)-13,19-dioxa-3,4,18-triazatricyclo[12.3.1.12,5] nonadeca-1(18),2,4,14,16-pentaen-6-ol], the “CFTR modulatory activity (potentiator activity)” value is listed as “confirmed”.
